# Results: the kinase profiling compilation of Christmann-Franck et al. (2016)
# Columns and labels:
# Assay in all cases: radiometric filter-binding kinase assay
# MAPK12 (human) = MAPK12 (human) (UniProt P53778)
# BRSK2 (human) = BRSK2 (human) (UniProt Q8IWQ3)
# MAPK13 (human) = MAPK13 (human) (UniProt O15264)
# MAPK3 (human) = MAPK3 (human) (UniProt P27361)
# PAK4 (human) = PAK4 (human) (UniProt O96013)
# DYRK2 (human) = DYRK2 (human) (UniProt Q92630)
# RPS6KA1 KD1 KD2 (human) = RPS6KA1 KD1 KD2 (human) (UniProt Q15418)
# PRKACA (human) = PRKACA (human) (UniProt P17612)
# CHEK2 (human) = CHEK2 (human) (UniProt O96017)
# PRKAA1 or PRKAA2 (rat) = conditions: accession and sequence are those of the human protein
# CaMK1 (human) = CaMK1 (human) (UniProt Q14012)
# EPHB3 (human) = EPHB3 (human) (UniProt P54753)
# SYK (human) = SYK (human) (UniProt P43405)
# MKNK1 (human) = MKNK1 (human) (UniProt Q9BUB5)
# [1] = system: AKT1 (human), P31749 [S473D]
# PLK1 (human) = PLK1 (human) (UniProt P53350)
# DYRK1A (human) = DYRK1A (human) (UniProt Q13627)
# MAPK8 (human) = MAPK8 (human) (UniProt P45983)
# NEK2 (human) = NEK2 (human) (UniProt P51955)
# MAPK1 (human) = MAPK1 (human) (UniProt P28482)
# MST4 (human) = MST4 (human) (UniProt Q9P289)
# PRKCA (human) = PRKCA (human) (UniProt P17252)
# PAK7 (human) = PAK7 (human) (UniProt Q9P286)
# HIPK2 (human) = HIPK2 (human) (UniProt Q9H2X6)
# IKBKE (human) = IKBKE (human) (UniProt Q14164)
# [2] = system: SGK1 (human), O00141 [S422D]
# Chain of SGK1 (human), O00141 [S422D] (O00141 whole entry S422D, looked up): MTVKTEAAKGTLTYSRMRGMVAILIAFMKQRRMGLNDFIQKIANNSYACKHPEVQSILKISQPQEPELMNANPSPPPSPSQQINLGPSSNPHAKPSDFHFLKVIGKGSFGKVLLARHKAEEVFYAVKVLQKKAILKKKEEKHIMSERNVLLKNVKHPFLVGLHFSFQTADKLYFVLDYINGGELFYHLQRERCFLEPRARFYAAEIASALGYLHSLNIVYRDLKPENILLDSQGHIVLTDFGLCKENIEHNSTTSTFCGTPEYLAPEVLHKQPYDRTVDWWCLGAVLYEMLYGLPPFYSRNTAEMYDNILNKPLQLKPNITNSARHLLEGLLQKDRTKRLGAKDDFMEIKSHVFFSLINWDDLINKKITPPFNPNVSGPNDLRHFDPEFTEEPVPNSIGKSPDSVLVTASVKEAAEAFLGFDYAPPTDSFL
# Chain of RPS6KA1 KD1 KD2 (human) (Q15418 whole entry, looked up): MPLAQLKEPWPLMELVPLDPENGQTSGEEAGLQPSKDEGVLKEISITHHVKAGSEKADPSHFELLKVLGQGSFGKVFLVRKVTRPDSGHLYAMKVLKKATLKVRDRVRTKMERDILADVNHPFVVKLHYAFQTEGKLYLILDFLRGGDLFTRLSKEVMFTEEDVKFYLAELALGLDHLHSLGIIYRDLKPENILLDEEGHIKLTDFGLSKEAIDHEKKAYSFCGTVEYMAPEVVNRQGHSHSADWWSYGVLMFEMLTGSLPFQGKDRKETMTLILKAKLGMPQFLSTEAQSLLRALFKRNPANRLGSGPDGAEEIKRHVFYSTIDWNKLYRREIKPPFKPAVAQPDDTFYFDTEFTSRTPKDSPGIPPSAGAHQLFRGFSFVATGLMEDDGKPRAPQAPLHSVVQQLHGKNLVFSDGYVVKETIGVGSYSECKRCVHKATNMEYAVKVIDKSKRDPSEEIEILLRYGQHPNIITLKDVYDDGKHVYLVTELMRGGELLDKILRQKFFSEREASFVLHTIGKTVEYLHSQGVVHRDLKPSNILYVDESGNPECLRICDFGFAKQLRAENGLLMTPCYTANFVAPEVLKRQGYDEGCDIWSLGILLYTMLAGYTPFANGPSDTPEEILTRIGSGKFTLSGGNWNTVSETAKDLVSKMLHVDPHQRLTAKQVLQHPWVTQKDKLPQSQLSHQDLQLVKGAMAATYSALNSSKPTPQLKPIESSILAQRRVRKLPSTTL
# Chain of PLK1 (human) (P53350 whole entry, looked up): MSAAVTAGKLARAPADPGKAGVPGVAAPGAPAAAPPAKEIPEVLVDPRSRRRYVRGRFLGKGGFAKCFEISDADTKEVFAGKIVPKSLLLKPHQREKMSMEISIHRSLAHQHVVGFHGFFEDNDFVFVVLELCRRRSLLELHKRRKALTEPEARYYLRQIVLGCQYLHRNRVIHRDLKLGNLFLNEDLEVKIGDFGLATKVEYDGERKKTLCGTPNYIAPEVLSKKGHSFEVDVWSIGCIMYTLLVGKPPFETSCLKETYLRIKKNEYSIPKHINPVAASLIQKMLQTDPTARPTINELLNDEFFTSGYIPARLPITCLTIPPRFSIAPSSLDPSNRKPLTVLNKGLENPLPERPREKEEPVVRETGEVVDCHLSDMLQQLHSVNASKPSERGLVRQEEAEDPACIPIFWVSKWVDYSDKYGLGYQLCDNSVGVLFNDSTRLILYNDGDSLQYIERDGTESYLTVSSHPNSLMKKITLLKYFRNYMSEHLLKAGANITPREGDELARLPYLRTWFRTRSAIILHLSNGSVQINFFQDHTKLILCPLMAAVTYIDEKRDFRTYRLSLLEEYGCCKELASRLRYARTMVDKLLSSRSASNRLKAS
# Chain of MAPK12 (human) (P53778 whole entry, looked up): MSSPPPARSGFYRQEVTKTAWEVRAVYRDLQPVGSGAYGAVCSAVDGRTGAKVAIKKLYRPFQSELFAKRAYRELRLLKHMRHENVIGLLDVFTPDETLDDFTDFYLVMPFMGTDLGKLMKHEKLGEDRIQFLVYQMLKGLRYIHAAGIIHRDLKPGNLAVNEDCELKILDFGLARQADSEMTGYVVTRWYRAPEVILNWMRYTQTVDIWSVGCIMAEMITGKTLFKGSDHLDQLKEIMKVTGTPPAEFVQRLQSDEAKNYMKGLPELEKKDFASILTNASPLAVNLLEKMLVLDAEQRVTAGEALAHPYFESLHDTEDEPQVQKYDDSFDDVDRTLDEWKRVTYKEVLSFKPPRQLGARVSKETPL
# Chain of MST4 (human) (Q9P289 whole entry, looked up): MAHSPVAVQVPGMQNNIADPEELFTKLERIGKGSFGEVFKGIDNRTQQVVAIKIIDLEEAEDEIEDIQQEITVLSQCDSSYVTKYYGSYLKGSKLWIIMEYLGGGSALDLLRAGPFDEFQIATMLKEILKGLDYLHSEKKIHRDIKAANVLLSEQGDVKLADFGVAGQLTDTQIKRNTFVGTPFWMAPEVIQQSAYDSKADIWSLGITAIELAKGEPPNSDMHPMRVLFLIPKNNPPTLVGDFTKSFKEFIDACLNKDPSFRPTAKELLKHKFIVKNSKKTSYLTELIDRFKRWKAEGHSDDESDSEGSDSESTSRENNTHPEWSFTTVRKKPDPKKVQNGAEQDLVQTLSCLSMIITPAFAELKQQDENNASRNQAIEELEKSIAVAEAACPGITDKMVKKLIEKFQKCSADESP
# Chain of PAK4 (human) (O96013 whole entry, looked up): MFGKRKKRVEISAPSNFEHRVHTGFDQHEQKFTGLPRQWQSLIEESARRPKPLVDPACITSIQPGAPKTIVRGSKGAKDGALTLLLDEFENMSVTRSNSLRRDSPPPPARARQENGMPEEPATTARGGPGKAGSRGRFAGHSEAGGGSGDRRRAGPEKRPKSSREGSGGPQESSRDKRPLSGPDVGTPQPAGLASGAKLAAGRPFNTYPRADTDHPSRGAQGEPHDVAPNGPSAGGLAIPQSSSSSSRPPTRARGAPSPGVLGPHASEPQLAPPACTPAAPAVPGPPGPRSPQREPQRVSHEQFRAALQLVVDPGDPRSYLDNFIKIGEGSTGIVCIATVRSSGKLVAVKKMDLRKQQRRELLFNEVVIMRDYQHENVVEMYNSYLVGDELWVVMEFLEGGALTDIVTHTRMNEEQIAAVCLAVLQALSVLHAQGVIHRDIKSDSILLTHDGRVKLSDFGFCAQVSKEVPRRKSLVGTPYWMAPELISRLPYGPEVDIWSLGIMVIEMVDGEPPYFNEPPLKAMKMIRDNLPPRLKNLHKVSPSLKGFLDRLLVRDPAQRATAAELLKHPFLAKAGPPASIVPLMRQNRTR
# Chain of PAK7 (human) (Q9P286 whole entry, looked up): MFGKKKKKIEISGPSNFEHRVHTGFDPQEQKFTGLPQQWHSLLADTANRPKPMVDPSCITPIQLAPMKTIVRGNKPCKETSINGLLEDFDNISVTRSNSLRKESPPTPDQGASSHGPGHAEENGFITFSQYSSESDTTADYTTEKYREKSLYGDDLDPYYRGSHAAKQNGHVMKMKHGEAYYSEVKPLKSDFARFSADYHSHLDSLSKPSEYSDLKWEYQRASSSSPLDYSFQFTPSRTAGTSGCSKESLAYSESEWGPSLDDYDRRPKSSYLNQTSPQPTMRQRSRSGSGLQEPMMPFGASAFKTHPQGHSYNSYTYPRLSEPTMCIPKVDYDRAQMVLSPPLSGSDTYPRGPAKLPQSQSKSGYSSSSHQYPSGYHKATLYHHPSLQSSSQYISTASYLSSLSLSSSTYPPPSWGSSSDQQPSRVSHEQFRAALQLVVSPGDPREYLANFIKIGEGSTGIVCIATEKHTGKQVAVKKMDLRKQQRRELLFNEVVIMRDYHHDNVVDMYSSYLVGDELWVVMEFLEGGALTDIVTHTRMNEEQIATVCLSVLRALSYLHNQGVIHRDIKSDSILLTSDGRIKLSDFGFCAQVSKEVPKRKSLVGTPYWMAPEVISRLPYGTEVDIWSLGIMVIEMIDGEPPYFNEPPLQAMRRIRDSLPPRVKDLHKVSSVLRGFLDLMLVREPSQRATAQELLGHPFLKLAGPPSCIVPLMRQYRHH
# Chain of MKNK1 (human) (Q9BUB5 whole entry, looked up): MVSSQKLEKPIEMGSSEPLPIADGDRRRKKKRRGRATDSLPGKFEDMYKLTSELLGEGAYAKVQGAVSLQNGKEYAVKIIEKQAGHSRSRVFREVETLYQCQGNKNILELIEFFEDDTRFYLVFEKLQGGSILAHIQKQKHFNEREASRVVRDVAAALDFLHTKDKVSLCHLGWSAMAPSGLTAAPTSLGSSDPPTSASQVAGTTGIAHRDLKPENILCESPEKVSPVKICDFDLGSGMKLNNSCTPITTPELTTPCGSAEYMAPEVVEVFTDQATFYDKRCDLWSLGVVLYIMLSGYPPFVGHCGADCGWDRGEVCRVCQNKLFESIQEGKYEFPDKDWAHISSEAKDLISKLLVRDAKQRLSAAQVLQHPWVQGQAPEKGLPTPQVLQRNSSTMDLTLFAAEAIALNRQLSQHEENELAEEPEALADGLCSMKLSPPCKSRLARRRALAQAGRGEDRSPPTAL
smiles,measurement,setting,value
C/C(=C1/C(=O)Nc2ccc(NC(N)=O)cc21)c1ccc[nH]1,residual activity,MAPK12 (human); compound 0.001 µM,89%
same,residual activity,MAPK12 (human); compound 0.01 µM,87%
same,residual activity,MAPK12 (human); compound 0.1 µM,82%
same,residual activity,BRSK2 (human); compound 0.001 µM,59%
same,residual activity,BRSK2 (human); compound 0.01 µM,21%
same,residual activity,BRSK2 (human); compound 0.1 µM,12%
same,residual activity,MAPK13 (human); compound 0.001 µM,96%
same,residual activity,MAPK13 (human); compound 0.01 µM,89%
same,residual activity,MAPK13 (human); compound 0.1 µM,86%
same,residual activity,MAPK3 (human); compound 0.001 µM,97%
same,residual activity,MAPK3 (human); compound 0.01 µM,89%
same,residual activity,MAPK3 (human); compound 0.1 µM,82%
same,residual activity,PAK4 (human); compound 0.001 µM,80%
same,residual activity,PAK4 (human); compound 0.01 µM,85%
same,residual activity,PAK4 (human); compound 0.1 µM,76%
same,residual activity,DYRK2 (human); compound 0.001 µM,88%
same,residual activity,DYRK2 (human); compound 0.01 µM,59%
same,residual activity,DYRK2 (human); compound 0.1 µM,18%
same,residual activity,RPS6KA1 KD1 KD2 (human); compound 0.001 µM,89%
same,residual activity,RPS6KA1 KD1 KD2 (human); compound 0.01 µM,75%
same,residual activity,RPS6KA1 KD1 KD2 (human); compound 0.1 µM,24%
same,residual activity,PRKACA (human); compound 0.001 µM,92%
same,residual activity,PRKACA (human); compound 0.01 µM,87%
same,residual activity,PRKACA (human); compound 0.1 µM,81%
same,residual activity,CHEK2 (human); compound 0.001 µM,32%
same,residual activity,CHEK2 (human); compound 0.01 µM,7%
same,residual activity,CHEK2 (human); compound 0.1 µM,0%
same,residual activity,PRKAA1 or PRKAA2 (rat); compound 0.001 µM,62%
same,residual activity,PRKAA1 or PRKAA2 (rat); compound 0.01 µM,25%
same,residual activity,PRKAA1 or PRKAA2 (rat); compound 0.1 µM,7%
same,residual activity,CaMK1 (human); compound 0.001 µM,104%
same,residual activity,CaMK1 (human); compound 0.01 µM,116%
same,residual activity,CaMK1 (human); compound 0.1 µM,103%
same,residual activity,EPHB3 (human); compound 0.001 µM,114%
same,residual activity,EPHB3 (human); compound 0.01 µM,99%
same,residual activity,EPHB3 (human); compound 0.1 µM,101%
same,residual activity,SYK (human); compound 0.001 µM,100%
same,residual activity,SYK (human); compound 0.01 µM,104%
same,residual activity,SYK (human); compound 0.1 µM,97%
same,residual activity,MKNK1 (human); compound 0.001 µM,92%
same,residual activity,MKNK1 (human); compound 0.01 µM,87%
same,residual activity,MKNK1 (human); compound 0.1 µM,82%
same,residual activity,[1]; compound 0.001 µM,85%
same,residual activity,[1]; compound 0.01 µM,76%
same,residual activity,PLK1 (human); compound 0.001 µM,86%
same,residual activity,PLK1 (human); compound 0.01 µM,82%
same,residual activity,PLK1 (human); compound 0.1 µM,72%
same,residual activity,DYRK1A (human); compound 0.001 µM,110%
same,residual activity,DYRK1A (human); compound 0.01 µM,91%
same,residual activity,DYRK1A (human); compound 0.1 µM,67%
same,residual activity,MAPK8 (human); compound 0.001 µM,114%
same,residual activity,MAPK8 (human); compound 0.01 µM,117%
same,residual activity,MAPK8 (human); compound 0.1 µM,106%
same,residual activity,NEK2 (human); compound 0.001 µM,92%
same,residual activity,NEK2 (human); compound 0.01 µM,92%
same,residual activity,NEK2 (human); compound 0.1 µM,86%
same,residual activity,MAPK1 (human); compound 0.001 µM,108%
same,residual activity,MAPK1 (human); compound 0.01 µM,95%
same,residual activity,MAPK1 (human); compound 0.1 µM,79%
same,residual activity,MST4 (human); compound 0.001 µM,87%
same,residual activity,MST4 (human); compound 0.01 µM,80%
same,residual activity,PRKCA (human); compound 0.001 µM,102%
same,residual activity,PRKCA (human); compound 0.01 µM,113%
same,residual activity,PRKCA (human); compound 0.1 µM,107%
same,residual activity,PAK7 (human); compound 0.001 µM,84%
same,residual activity,PAK7 (human); compound 0.1 µM,78%
same,residual activity,HIPK2 (human); compound 0.001 µM,89%
same,residual activity,HIPK2 (human); compound 0.01 µM,82%
same,residual activity,HIPK2 (human); compound 0.1 µM,51%
same,residual activity,IKBKE (human); compound 0.001 µM,85%
same,residual activity,IKBKE (human); compound 0.01 µM,84%
same,residual activity,IKBKE (human); compound 0.1 µM,69%
same,residual activity,[2]; compound 0.001 µM,98%
same,residual activity,[2]; compound 0.01 µM,86%
same,residual activity,[2]; compound 0.1 µM,58%
NC(=O)Nc1ccc2c(c1)/C(=C/c1cc(-c3cccnc3)c[nH]1)C(=O)N2,residual activity,MAPK12 (human); compound 0.1 µM,93%
same,residual activity,MAPK12 (human); compound 1.0 µM,86%
same,residual activity,BRSK2 (human); compound 0.1 µM,13%
same,residual activity,BRSK2 (human); compound 1.0 µM,10%
same,residual activity,BRSK2 (human); compound 10.0 µM,18%
same,residual activity,MAPK13 (human); compound 0.1 µM,85%
same,residual activity,MAPK13 (human); compound 1.0 µM,62%
same,residual activity,MAPK13 (human); compound 10.0 µM,22%
same,residual activity,MAPK3 (human); compound 0.1 µM,71%
same,residual activity,MAPK3 (human); compound 10.0 µM,4%
same,residual activity,PAK4 (human); compound 0.1 µM,64%
same,residual activity,PAK4 (human); compound 1.0 µM,31%
same,residual activity,DYRK2 (human); compound 0.1 µM,19%
same,residual activity,DYRK2 (human); compound 1.0 µM,2%
same,residual activity,DYRK2 (human); compound 10.0 µM,0%
same,residual activity,RPS6KA1 KD1 KD2 (human); compound 0.1 µM,24%
same,residual activity,RPS6KA1 KD1 KD2 (human); compound 1.0 µM,10%
same,residual activity,RPS6KA1 KD1 KD2 (human); compound 10.0 µM,5%
same,residual activity,PRKACA (human); compound 0.1 µM,78%
same,residual activity,PRKACA (human); compound 1.0 µM,66%
same,residual activity,PRKACA (human); compound 10.0 µM,32%
same,residual activity,CHEK2 (human); compound 0.1 µM,-1%
same,residual activity,CHEK2 (human); compound 1.0 µM,-5%
same,residual activity,CHEK2 (human); compound 10.0 µM,1%
same,residual activity,PRKAA1 or PRKAA2 (rat); compound 0.1 µM,5%
same,residual activity,PRKAA1 or PRKAA2 (rat); compound 1.0 µM,6%
same,residual activity,PRKAA1 or PRKAA2 (rat); compound 10.0 µM,4%
same,residual activity,CaMK1 (human); compound 0.1 µM,112%
same,residual activity,CaMK1 (human); compound 1.0 µM,69%
same,residual activity,CaMK1 (human); compound 10.0 µM,19%
same,residual activity,EPHB3 (human); compound 0.1 µM,107%
same,residual activity,EPHB3 (human); compound 1.0 µM,90%
same,residual activity,EPHB3 (human); compound 10.0 µM,53%
same,residual activity,SYK (human); compound 1.0 µM,40%
same,residual activity,SYK (human); compound 10.0 µM,7%
same,residual activity,MKNK1 (human); compound 0.1 µM,80%
same,residual activity,MKNK1 (human); compound 1.0 µM,54%
same,residual activity,MKNK1 (human); compound 10.0 µM,30%
same,residual activity,[1]; compound 0.1 µM,85%
same,residual activity,[1]; compound 1.0 µM,69%
same,residual activity,[1]; compound 10.0 µM,62%
same,residual activity,PLK1 (human); compound 0.1 µM,86%
same,residual activity,PLK1 (human); compound 1.0 µM,42%
same,residual activity,PLK1 (human); compound 10.0 µM,18%
same,residual activity,DYRK1A (human); compound 0.1 µM,42%
same,residual activity,DYRK1A (human); compound 1.0 µM,11%
same,residual activity,MAPK8 (human); compound 0.1 µM,124%
same,residual activity,MAPK8 (human); compound 1.0 µM,99%
same,residual activity,MAPK8 (human); compound 10.0 µM,48%
same,residual activity,NEK2 (human); compound 0.1 µM,100%
same,residual activity,NEK2 (human); compound 1.0 µM,75%
same,residual activity,NEK2 (human); compound 10.0 µM,28%
same,residual activity,MAPK1 (human); compound 0.1 µM,81%
same,residual activity,MAPK1 (human); compound 1.0 µM,41%
same,residual activity,MAPK1 (human); compound 10.0 µM,16%
same,residual activity,MST4 (human); compound 1.0 µM,18%
same,residual activity,MST4 (human); compound 10.0 µM,21%
same,residual activity,PRKCA (human); compound 0.1 µM,106%
same,residual activity,PRKCA (human); compound 1.0 µM,83%
same,residual activity,PRKCA (human); compound 10.0 µM,27%
same,residual activity,PAK7 (human); compound 0.1 µM,75%
same,residual activity,PAK7 (human); compound 1.0 µM,43%
same,residual activity,PAK7 (human); compound 10.0 µM,8%
same,residual activity,HIPK2 (human); compound 0.1 µM,33%
same,residual activity,HIPK2 (human); compound 1.0 µM,7%
same,residual activity,HIPK2 (human); compound 10.0 µM,1%
same,residual activity,IKBKE (human); compound 0.1 µM,51%
same,residual activity,IKBKE (human); compound 1.0 µM,12%
same,residual activity,IKBKE (human); compound 10.0 µM,11%
same,residual activity,[2]; compound 0.1 µM,77%
same,residual activity,[2]; compound 1.0 µM,32%
same,residual activity,[2]; compound 10.0 µM,6%
